Measurements taken from US9938281B2 (Merck Sharp & Dohme Corp., priority 2012, dated 2018).

Legend:
PI3K-delta = target: T1, PI3K-delta (Homo sapiens, UniProt O00329); experiment: HTRF PI3K biochemical assay, delta isoform; settings: form screened (neutral or TFA salt) given, read-out: PI3Kdelta IC50
T1 construct: purchased Upstate; Millipore 14-604

PI3K-alpha = target: T2, PI3K-alpha (Homo sapiens, UniProt P42336); experiment: HTRF PI3K biochemical assay, alpha isoform; settings: ratio PI3K-alpha IC50 value / PI3K-delta IC50 value
T2 construct: purchased Upstate; Millipore 14-602
T2 sequence (P42336 whole entry, canonical isoform): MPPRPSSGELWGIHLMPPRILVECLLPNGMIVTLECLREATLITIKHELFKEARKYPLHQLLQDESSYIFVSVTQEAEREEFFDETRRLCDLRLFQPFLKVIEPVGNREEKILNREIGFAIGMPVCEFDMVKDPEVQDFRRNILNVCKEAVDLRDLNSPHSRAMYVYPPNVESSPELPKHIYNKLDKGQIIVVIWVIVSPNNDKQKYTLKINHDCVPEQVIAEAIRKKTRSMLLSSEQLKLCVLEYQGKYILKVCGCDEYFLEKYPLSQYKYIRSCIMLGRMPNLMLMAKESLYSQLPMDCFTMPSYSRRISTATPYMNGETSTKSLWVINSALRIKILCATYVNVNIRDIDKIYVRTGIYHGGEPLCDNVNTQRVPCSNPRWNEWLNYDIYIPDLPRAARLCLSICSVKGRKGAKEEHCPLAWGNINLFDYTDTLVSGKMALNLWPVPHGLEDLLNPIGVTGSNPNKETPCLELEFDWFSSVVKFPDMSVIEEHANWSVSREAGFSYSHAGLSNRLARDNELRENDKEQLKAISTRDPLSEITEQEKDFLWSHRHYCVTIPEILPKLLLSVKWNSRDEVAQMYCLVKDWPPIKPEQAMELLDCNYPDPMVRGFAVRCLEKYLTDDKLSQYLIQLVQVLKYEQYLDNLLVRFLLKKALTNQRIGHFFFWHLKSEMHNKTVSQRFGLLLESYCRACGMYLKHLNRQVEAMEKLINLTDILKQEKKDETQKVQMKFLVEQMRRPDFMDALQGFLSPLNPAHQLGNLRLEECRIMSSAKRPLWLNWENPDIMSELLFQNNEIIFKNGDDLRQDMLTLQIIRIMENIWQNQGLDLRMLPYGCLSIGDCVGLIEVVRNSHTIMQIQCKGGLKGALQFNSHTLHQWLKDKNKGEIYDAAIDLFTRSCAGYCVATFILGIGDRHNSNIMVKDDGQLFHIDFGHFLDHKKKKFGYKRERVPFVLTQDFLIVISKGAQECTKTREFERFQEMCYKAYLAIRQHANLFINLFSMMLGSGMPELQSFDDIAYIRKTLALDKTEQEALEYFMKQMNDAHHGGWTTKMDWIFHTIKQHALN
T2 sequence (P27986 whole entry partner, canonical isoform): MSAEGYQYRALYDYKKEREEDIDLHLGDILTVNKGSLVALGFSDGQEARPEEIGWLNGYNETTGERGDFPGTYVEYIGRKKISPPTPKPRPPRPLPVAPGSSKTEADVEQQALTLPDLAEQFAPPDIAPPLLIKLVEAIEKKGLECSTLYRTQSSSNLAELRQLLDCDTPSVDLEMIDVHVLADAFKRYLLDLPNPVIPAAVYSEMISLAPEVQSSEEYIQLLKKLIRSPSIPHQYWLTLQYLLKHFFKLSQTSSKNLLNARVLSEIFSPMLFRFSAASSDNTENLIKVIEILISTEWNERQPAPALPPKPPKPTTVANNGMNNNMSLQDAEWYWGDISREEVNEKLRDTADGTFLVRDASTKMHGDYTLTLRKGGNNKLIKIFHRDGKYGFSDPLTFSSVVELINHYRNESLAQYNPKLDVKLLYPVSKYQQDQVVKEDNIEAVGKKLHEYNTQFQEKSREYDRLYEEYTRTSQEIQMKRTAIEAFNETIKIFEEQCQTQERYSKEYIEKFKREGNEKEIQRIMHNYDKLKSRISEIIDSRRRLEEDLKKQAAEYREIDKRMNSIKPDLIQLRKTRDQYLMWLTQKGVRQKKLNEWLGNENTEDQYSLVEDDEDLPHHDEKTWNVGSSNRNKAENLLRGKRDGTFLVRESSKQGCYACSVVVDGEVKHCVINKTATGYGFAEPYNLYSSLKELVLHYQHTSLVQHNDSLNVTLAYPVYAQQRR
Text: The PI3-Kinase biochemical assays were developed to measure the intrinsic potency and compound dependent inhibition of the alpha, beta, delta, and gamma PI3K isoform enzymes. This assay was developed and further optimized from a kit produced by Upstate (Millipore catalog #33-047) and has been configured for HTS and SAR screening. Briefly, this procedure exploits the exquisite specificity and high affinity binding of enzyme reaction substrate phosphatidyl(3,4,5)triphosphate (PIP3) to the GRP1 pleckstrin homology (PH) domain to generate the signal. In the absence of PIP3, an HTRF (Homogeneous Time-Resolved Fluorescence energy transfer) complex is formed consisting of europium (Eu)-labeled anti-GST, GSTtagged GRP1-PH domain, biotin-PIP3 and streptavidin conjugated APC. The native PIP3 produced by PI3-Kinase activity disrupts in a competitive manner the biotin-PIP3 from the PH domain, resulting in the loss of energy transfer (HTRF complex) and a decrease in the signal. The format of this assay is the same for all 4 isoforms of PI3K; the differences lie in the concentration of enzyme used to achieve robust assay window. The alpha, beta, and delta assays are run at 0.5, 1, and 0.3 nM enzymes and the gamma assay is run at 5 nM enzyme. The ATP concentration is 100 uM in the alpha, beta, and delta assays and 50 uM ATP in the gamma assay. All reactions are run at 5 uM PIP2.
Compounds are serially diluted (3-fold in 100% DMSO) across a 384-well polypropylene source plated from column 3 to column 12 and column 13 to column 22, to yield 10 concentration dose response for each test compound. Columns 1, 2, 23 and 24 contain either only DMSO or pharmacological known control inhibitor.
The PI3-Kinase biochemical assay was optimized using the HTRF kit provided by Upstate (Millipore). The assay kit contains six reagents: 1) 4× Reaction Buffer; 2) native PIP2 (substrate); 3) Stop (EDTA); 4) Detection Mix A (Streptavidin-APC); 5) Detection Mix B (Eu-labeled Anti-GST plus GST-tagged PH-domain); 6) Detection Mix C.
PI3Kinase Reaction Buffer is prepared by dilution the stock 1:4 with de-ionized water. […] Enzyme addition and compound pre-incubation are initiated by the addition of 1.25 ul of PI3K (at twice its final concentration) in the 1× reaction buffer to all wells using a BioRaptor. Plates are incubated at room temperature for 15 minutes. Reactions are initiated by addition of 1.25 ul of 2× substrate solution (PIP2 and ATP in 1× reaction buffer) using BioRaptor. Plates are incubated in humidified chamber at room temperature for one hour. Reactions are quenched by addition of 0.625 uL of stop solution to all wells using the BioRaptor. The quenched reactions are then processed to detect product formation by adding 0.625 uL of Detection Solution to all wells using the BioRaptor (Detection mix C, Detection Mix A, and Detection Mix B combined together in an 18:1:1 ratio prepared 2 hours prior to use).
The loss of the HTRF signal is due to the displacement of biotinylated-PIP3 from the PH domain by the PI3K-dependent conversion of PIP2 to PIP3. This loss of signal is nonlinear with respect to both increasing product and time. This non-linear detection will impact accuracy of IC50 calculations; therefore, there is a need for a correction factor to obtain more accurate IC50 values. This correction is derived from a PIP3 standard curve run in a separate assay plate. All data were calculated using the ratio of acceptor (APC) to donor (Europium) fluorescence in each well of the assay plate. […] An IC50 was then calculated fitting the % inhibition data to the equation: % inhibition=min+(Max−min)/1+([inhibitor]/IC50)^n) where min is the % inhibition with inhibitor, max is the signal in DMSO control, and n is the Hill slope.
The determination of relative selectivity for a given compound is defined as the relative ratio of the (PI3K-alphalC50 value/PI3K-delta IC50 value).

T1 sequence (O00329 whole entry, canonical isoform): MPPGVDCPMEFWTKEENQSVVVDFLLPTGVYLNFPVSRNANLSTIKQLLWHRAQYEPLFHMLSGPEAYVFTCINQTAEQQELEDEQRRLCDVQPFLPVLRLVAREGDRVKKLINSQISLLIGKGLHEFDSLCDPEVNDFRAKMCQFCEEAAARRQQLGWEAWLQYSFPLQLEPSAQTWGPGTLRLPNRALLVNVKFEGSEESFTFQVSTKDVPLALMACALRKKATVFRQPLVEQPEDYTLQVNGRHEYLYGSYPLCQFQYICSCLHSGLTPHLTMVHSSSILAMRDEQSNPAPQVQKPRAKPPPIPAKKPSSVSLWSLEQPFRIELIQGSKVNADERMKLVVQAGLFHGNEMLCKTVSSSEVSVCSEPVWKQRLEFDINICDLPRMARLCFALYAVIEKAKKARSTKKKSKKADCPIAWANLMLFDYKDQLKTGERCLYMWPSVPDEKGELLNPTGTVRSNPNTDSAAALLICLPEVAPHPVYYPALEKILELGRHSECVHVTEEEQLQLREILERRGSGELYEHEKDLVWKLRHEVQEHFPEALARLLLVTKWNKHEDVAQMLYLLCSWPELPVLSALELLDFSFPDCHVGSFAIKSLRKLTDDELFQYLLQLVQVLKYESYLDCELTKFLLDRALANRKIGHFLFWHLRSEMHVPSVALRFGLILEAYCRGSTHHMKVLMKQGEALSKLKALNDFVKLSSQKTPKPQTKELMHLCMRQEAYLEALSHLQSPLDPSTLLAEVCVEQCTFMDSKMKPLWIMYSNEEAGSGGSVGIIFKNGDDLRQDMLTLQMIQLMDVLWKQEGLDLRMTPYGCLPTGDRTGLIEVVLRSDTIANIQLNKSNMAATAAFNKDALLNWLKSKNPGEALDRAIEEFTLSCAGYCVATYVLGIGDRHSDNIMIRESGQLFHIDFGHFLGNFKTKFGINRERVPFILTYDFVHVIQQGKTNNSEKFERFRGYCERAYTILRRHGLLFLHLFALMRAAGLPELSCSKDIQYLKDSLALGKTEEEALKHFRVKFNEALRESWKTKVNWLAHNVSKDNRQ
T1 sequence (P27986 whole entry partner, canonical isoform): as the sequence (P27986 whole entry partner, canonical isoform) above

Structure (SMILES) | IC50 (PI3K-delta) [nM] | Selectivity versus PI3Kalpha (PI3K-alpha)
CCn1c(-c2cnc(OC)c(C)c2)nc2c(N[C@H]3CCN(C(=O)c4cncn4C)C3)ncnc21 [Compound 3A-6, 9-ethyl-8-(6-methoxy-5-methylpyridin-3-yl)-N-{(3S)-1-[(1-methyl-1H-imidazol-5-yl)carbonyl]pyrrolidin-3-yl}-9H-purin-6-amine] | < 1 | >10
CCc1nc2c(N[C@H]3CCN(C(=O)C4CC4)C3)ncnc2n1CC [Compound 7-23, N-[(3S)-1-(cyclopropylcarbonyl)pyrrolidin-3-yl]-8,9-diethyl-9H-purin-6-amine] | 120 | >10
CCn1c(-c2cnc(C)nc2)nc2c(N[C@H]3CC[C@@H](C(=O)N(C)C)C3)ncnc21 [Compound 5-4, (1R,3S)-3-{[9-ethyl-8-(2-methylpyrimidin-5-yl)-9H-purin-6-yl]amino}-N,N-dimethylcyclopentanecarbox-amide] | 5.3 | >10
CCn1c(-c2cnc(C)nc2)nc2c(N[C@H]3CCN(C(=O)OC4CCCCC4)C3)ncnc21 [Compound 13-8, cyclohexyl (3S)-3-{[9-ethyl-8-(2-methylpyrimidin-5-yl)-9H-purin-6-yl]amino}pyrrolidine-l-carboxylate] | 3.9 | >10
CCC(=O)N1CC[C@H](Nc2ncnc3c2nc(-c2cnc(C(C)(C)C)s2)n3C)C1 [Compound 2-14, (S)-1-(3-((8-(2-(tert-butyl)thiazol-5-yl)-9-methyl-9H-purin-6-yl)amino)pyrrolidin-1-yl)propan-1-one] | 1.2 | >10
CCC(=O)N1CC[C@H](Nc2ncnc3c2nc(-c2ccc(C(F)(F)F)nc2)n3C)C1 [Compound 3-1, (S)-1-(3-((9-methyl-8-(6-(trifluoromethyl)pyridin-3-yl)-9H-purin-6-yl)amino)pyrrolidin-1-yl)propan-1-one] | 11 | >10
CCC(=O)N1CC[C@H](Nc2ncnc3c2nc(CC(C)C)n3C)C1 [Compound 7-3, 9-methyl-8-(2-methylpropyl)-N-[(3S)-1-propanoylpyrrolidin-3-yl]-9H-purin-6-amine] | 140 | >10
CCn1c(-c2cnc(C)nc2)nc2c(N[C@H]3CCN(C(=O)C4(O)CCCC4)C3)ncnc21 [Compound 2-58, 1-{[(3S)-3-{[9-ethyl-8-(2-methylpyrimidin-5-yl)-9H-purin-6-yl]amino}pyrrolidin-1-yl]carbonyl}cyclopentanol] | 22 | >10
CCn1c(-c2cnc(C)nc2)nc2c(N[C@H]3CCN(C(=O)c4cncn4C)C3)ncnc21 [Compound 2-69, [(3S)-3-{[9-ethyl-8-(2-methylpyrimidin-5-yl)-9H-purin-6-yl]amino}pyrrolidin-1-yl](1-methyl-1H-imidazol-5-yl)methanone] | 3.8 | >10
CCn1c(-c2cnc(C)nc2)nc2c(N[C@H]3CCN(C(=O)C45CC(C4)C5)C3)ncnc21 [Compound 2-77, N-[(3S)-1-(bicyclo[1.1.1]pent-1-ylcarbonyl)pyrrolidin-3-yl]-9-ethyl-8-(2-methylpyrimidin-5-yl)-9H-purin-6-amine] | 2.1 | >10
CCC(=O)N1CC[C@H](Nc2ncnc3c2nc(C)n3CC)C1 [Compound 7-4, 9-ethyl-8-methyl-N-[(3S)-1-propanoylpyrrolidin-3-yl]-9H-purin-6-amine] | 500 | >10
CCn1c(-c2cnc(C)nc2)nc2c(NC3CN(C(=O)C4CC4)CC3(F)F)ncnc21 (racemic) [Compound 2-25, N-[(3S and 3R)-1-(cyclopropylcarbonyl)-4,4-difluoropyrrolidin-3-yl]-9-ethyl-8-(2-methylpyrimidin-5-yl)-9H-purin-6-amine] | 3.7 | >10
CCn1c(-c2cnc(C)nc2)nc2c(N[C@H]3CCN(C(=O)C4CC4(C)C)C3)ncnc21 (mixture of isomers) [Compound 2-56, N-{(3S)-1-[((R and S)-2,2-dimethylcyclopropyl)carbonyl]pyrrolidin-3-yl}-9-ethyl-8-(2-methylpyrimidin-5-yl)-9H-purin-6-amine] | 1 | >10
CCn1c(-c2cnc(C)nc2)nc2c(N[C@H]3CCN(C(=O)Cc4ccccc4)C3)ncnc21 [Compound 2-36, 9-ethyl-8-(2-methylpyrimidin-5-yl)-N-[(3S)-1-(phenylacetyl)pyrrolidin-3-yl]-9H-purin-6-amine] | 17 | >10
CCn1c(-c2cnc(C)nc2)nc2c(N[C@H]3CCN(C(=O)C4CCCC4)C3)ncnc21 [Compound 2-23, (S)-cyclopentyl(3-((9-ethyl-8-(2-methylpyrimidin-5-yl)-9H-purin-6-yl)amino)pyrrolidin-1-yl)methanone] | 8 | >10
CCn1c(C(F)F)nc2c(N[C@H]3CCN(C(=O)c4cocn4)C3)ncnc21 [Compound 7-16, 8-(difluoromethyl)-9-ethyl-N-[(3S)-1-(1,3-oxazol-4-ylcarbonyl)pyrrolidin-3-yl]-9H-purin-6-amine] | 120 | >10
CCn1c(-c2cnc(C)nc2)nc2c(N[C@H]3CCN(C(=O)C4CC4)C3)ncnc21 [Compound 2-21, (S)-cyclopropyl(3-((9-ethyl-8-(2-methylpyrimidin-5-yl)-9H-purin-6-yl)amino)pyrrolidin-1-yl)methanone] | < 1 | >10
CCn1ncc(-c2nc3c(NC4CC(=O)N(CC(C)C)C4)ncnc3n2C)c1C (racemic) [Compound 14-3, 4(S and R)-{[8-(1-ethyl-5-methyl-1H-pyrazol-4-yl)-9-methyl-9H-purin-6-yl}amino}-1-(2-methylpropyl)pyrrolidin-2-one] | 5.4 | >10
CCn1c(-c2ccc(OC)nc2)nc2c(N[C@H]3CCN(C(=O)C4CCOCC4)C3)ncnc21 [Compound 3A-3, 9-ethyl-8-(6-methoxypyridin-3-yl)-N-[(3S)-1-(tetrahydro-2H-pyran-4-ylcarbonyl)pyrrolidin-3-yl]-9H-purin-6-amine] | < 1 | >10
CCOC(=O)C(C)NC(=O)N1CC[C@H](Nc2ncnc3c2nc(-c2cnc(C)nc2)n3CC)C1 (stereo partly drawn) [Compound 12-18, ethyl N-{[(3S)-3-{[9-ethyl-8-(2-methylpyrimidin-5-yl)-9H-purin-6-yl]amino}pyrrolidin-1-yl]carbonyl}(D and L)-alaninate] | 13 | >10
CCn1c(-c2cnc(C)nc2)nc2c(N[C@H]3C[C@H](C(=O)NC)N(C(=O)C4CC4)C3)ncnc21 [Compound 15-3, (4S)-1-(cyclopropylcarbonyl)-4-{[9-ethyl-8-(2-methylpyrimidin-5-yl)-9H-purin-6-yl]amino}-N-methyl-D-prolinamide] | 12 | >10
CCn1c(-c2cnc(OC)c(F)c2)nc2c(N[C@H]3CCN(C(=O)C4CC(F)(F)C4)C3)ncnc21 [Compound 3A-7, N-{(3S)-1-[(3,3-difluorocyclobutyl)carbonyl]pyrrolidin-3-yl}-9-ethyl-8-(5-fluoro-6-methoxypyridin-3-yl)-9H-purin-6-amine] | < 1 | >10
CCn1c(-c2cnc(C)nc2)nc2c(N[C@H]3C[C@H](C(=O)NCCO)N(C(=O)C4CC4)C3)ncnc21 [Compound 15-7, (4S)-1-(cyclopropylcarbonyl)-4-{[9-ethyl-8-(2-methylpyrimidin-5-yl)-9H-purin-6-yl]amino}-N-(2-hydroxyethyl)-D-prolinamide] | 5.8 | >10
CCn1c(-c2cnc(C)nc2)nc2c(N[C@H]3CCN(C(=O)C4CC4(F)F)C3)ncnc21 (mixture of isomers) [Compound 2-55, N-{(3S)-1-[((R and S)-2,2-difluorocyclopropyl)carbonyl]pyrrolidin-3-yl}-9-ethyl-8-(2-methylpyrimidin-5-yl)-9H-purin-6-amine] | 1.5 | >10
CCn1c(C(=O)NCCOC)nc2c(N[C@H]3CCN(C(=O)C4CC4)C3)ncnc21 [Compound 6-2, 6-{[(3S)-1-(cyclopropylcarbonyl)pyrrolidin-3-yl]amino}-9-ethyl-N-(2-methoxyethyl)-9H-purine-8-carboxamide] | 85 | >10
CCn1c(-c2cnc(C)nc2)nc2c(N[C@H]3CCN(C(=O)[C@H]4C[C@H](OC)C4)C3)ncnc21 [Compound 2-38, 9-ethyl-N-{(3S)-1-[(trans-3-methoxycyclobutyl)carbonyl]pyrrolidin-3-yl}-8-(2-methylpyrimidin-5-yl)-9H-purin-6-amine] | 1.7 | >10
CCOC(=O)CCNC(=O)N1CC[C@H](Nc2ncnc3c2nc(-c2cnc(C)nc2)n3CC)C1 [Compound 12-17, ethyl N-{[(3S)-3-{[9-ethyl-8-(2-methylpyrimidin-5-yl)-9H-purin-6-yl]amino}pyrrolidin-1-yl]carbonyl}-beta-alaninate] | 13 | >10
CCC(=O)N1CC[C@H](Nc2ncnc3c2nc(-c2cnn(CC)c2C)n3CC2CC2)C1 [Compound 9-3, 9-(cyclopropylmethyl)-8-(1-ethyl-5-methyl-1H-pyrazol-4-yl)-N-[(3S)-1-propanoylpyrrolidin-3-yl]-9H-purin-6-amine] | 67 | >10
CCn1c(-c2cnc(C)nc2)nc2c(N[C@H]3CCN(c4ccccn4)C3)ncnc21 [Compound 4-1, 9-ethyl-8-(2-methylpyrimidin-5-yl)-N-[(3S)-1-pyridin-2-ylpyrrolidin-3-yl]-9H-purin-6-amine] | < 1 | >10
CCn1c(-c2cnc(C)nc2)nc2c(NC3CCN(C(=O)c4cnco4)C3)ncnc21 (stereo in doubt) [Compound 2-76, (R)-(3-((9-ethyl-8-(2-methylpyrimidin-5-yl)-9H-purin-6-yl)amino)pyrrolidin-1-yl)(oxazol-5-yl)methanone] | 3.1 | >10
